pIC50: −log10 of the molar value.
The compounds below were run against SARS-CoV-2 Papain-Like Protease (PLpro) (Severe acute respiratory syndrome coronavirus 2 (2019-nCoV) (SARS-CoV-2), UniProt P0DTD1) (assay: biochemical). Details: PLpro 6.25 nM, substrate 25 μM, 60 min at 25° C.; for more potent compounds PLpro 1 nM, 120 min; read-out: PLpro IC50.

SMILES	pIC50
COc1ccc(Cl)c(C(=O)N[C@H](C)c2cccc3ccccc23)c1 [Compound 132, (R)-2-Chloro-5-methoxy-N-(1-(naphthalen-1-yl)ethyl)benzamide]	< 5.30
COc1ccc(C)c(C(=O)N[C@H](C)c2cccc3ccccc23)c1 [Compound 136, (R)-5-Methoxy-2-methyl-N-(1-(naphthalen-1-yl)ethyl)benzamide]	5.30 to 6.00
CC(=O)c1ccc(C)c(C(=O)N[C@H](C)c2cccc3ccccc23)c1 [Compound 155, (R)-5-Acetyl-2-methyl-N-(1-(naphthalen-1-yl)ethyl)benzamide]	< 5.30

Same assay, conditions: PLpro enzymatic fluorescence assay; class symbols; read-out: PLpro IC50

SMILES	pIC50
Cc1ccc([N+](=O)[O-])cc1CNC(c1cccc2ccccc12)C1COC1 (stereo not drawn) [Compound 110]	< 5.30
COCCC(NCc1cc([N+](=O)[O-])ccc1C)c1cccc2ccccc12 (stereo not drawn) [Compound 113]	< 5.30
Cc1ccc([N+](=O)[O-])cc1CNC(c1cccc2ccccc12)C1CCOC1 (stereo not drawn) [Compound 123]	< 5.30
CC(c1cccc2ccccc12)N1CCc2ccc([N+](=O)[O-])cc2C1 (stereo not drawn) [Compound 127, 2-(1-(Naphthalen-1-yl)ethyl)-7-nitro-1,2,3,4-tetrahydroisoquinoline]	< 5.30

Same assay, conditions: SARS-CoV-2 PLpro enzymatic fluorescence assay; read-out: PLpro IC50

SMILES	pIC50
Cc1ccc(N)cc1CN[C@H](C)c1cccc2ccccc12 [Compound 106, (R)-4-Methyl-3-(((1-(naphthalen-1-yl)ethyl)amino)methyl) aniline]	< 5.30
Cc1ccc(Nc2nccs2)cc1C(=O)N[C@H](C)c1cccc2ccccc12 [Compound 107, (R)-2-Methyl-N-(1-(naphthalen-1-yl)ethyl)-5-(thiazol-2-ylamino)benzamide]	< 5.30
COCC(NC(=O)c1cc([N+](=O)[O-])ccc1C)c1cccc2ccccc12 (stereo not drawn) [Compound 108, N-(2-Methoxy-1-(naphthalen-1-yl)ethyl)-2-methyl-5-nitrobenzamide]	< 5.30
Cc1ccc(N)cc1C(=O)NC(c1cccc2ccccc12)C1CCOCC1 (stereo not drawn) [Compound 109, 5-Amino-2-methyl-N-(naphthalen-1-yl(tetrahydro-2H-pyran-4-yl)methyl)benzamide]	< 5.30
Cc1ccc(NC2CNC2)cc1C(=O)N1Cc2ccc(-c3ccc(CN4CCCC4)s3)cc2C1 [Compound 111, (5-(Azetidin-3-ylamino)-2-methylphenyl)(5-(5-(pyrrolidin-1-ylmethyl)thiophen-2-yl)isoindolin-2-yl)methanone]	< 5.30
COc1ncccc1Nc1ccc(C)c(C(=O)N[C@H](C)c2cccc3ccccc23)c1 [Compound 115, (R)-5-((2-Methoxypyridin-3-yl)amino)-2-methyl-N-(1-(naphthalen-1-yl)ethyl)benzamide]	5.30 to 6.00
Cc1ccc(NC2CNC2)cc1C(=O)NCc1ccc(-c2ccc(CN3CCCC3)s2)cc1 [Compound 116, 5-(Azetidin-3-ylamino)-2-methyl-N-(4-(5-(pyrrolidin-1-ylmethyl)thiophen-2-yl)benzyl)benzamide]	< 5.30
COCC(NC(=O)c1cc(N)ccc1C)c1cccc2ccccc12 (stereo not drawn) [Compound 118, 5-Amino-N-(2-methoxy-1-(naphthalen-1-yl)ethyl)-2-methylbenzamide]	< 5.30
Cc1ccc(Nc2ccc[nH]c2=O)cc1C(=O)N[C@H](C)c1cccc2ccccc12 [Compound 119, (R)-2-Methyl-N-(1-(naphthalen-1-yl)ethyl)-5-((2-oxo-1,2-dihydropyridin-3-yl)amino)benzamide]	5.30 to 6.00
Cc1ccc(NC2CNC2)cc1C(=O)NCc1cccc(-c2ccc(CN3CCCC3)s2)c1 [Compound 120, 5-(Azetidin-3-ylamino)-2-methyl-N-(3-(5-(pyrrolidin-1-ylmethyl)thiophen-2-yl)benzyl)benzamide]	< 5.30
Cc1ccc(Nc2cn[nH]c2)cc1C(=O)N[C@H](C)c1cccc2ccccc12 [Compound 121, (R)-5-((1H-Pyrazol-4-yl)amino)-2-methyl-N-(1-(naphthalen-1-yl)ethyl)benzamide]	5.30 to 6.00
C[C@@H](NC(=O)c1ccc2cn[nH]c2c1)c1cccc2ccccc12 [Compound 124, (R)-N-(1-(naphthalen-1-yl)ethyl)-1H-indazole-6-carboxamide]	< 5.30
C[C@@H](NC(=O)c1ccc2nc[nH]c2c1)c1cccc2ccccc12 [Compound 125, (R)-N-(1-(Naphthalen-1-yl)ethyl)-1H-benzo[d]imidazole-6-carboxamide]	< 5.30
Cc1cc2nc[nH]c2cc1C(=O)N[C@H](C)c1cccc(-c2ccc(CN3CCCC3)s2)c1 [Compound 126, (R)-5-Methyl-N-(1-(3-(5-(pyrrolidin-1-ylmethyl)thiophen-2-yl)phenyl)ethyl)-1H-benzo[d]imidazole-6-carboxamide]	5.30 to 6.00
Cc1cc2nc(CN)[nH]c2cc1C(=O)N[C@H](C)c1cccc2ccccc12 [Compound 128, (R)-2-(Aminomethyl)-5-methyl-N-(1-(naphthalen-1-yl)ethyl)-1H-benzo[d]imidazole-6-carboxamide]	6.00 to 7.00
Cc1cc2nc(C3CNC3)[nH]c2cc1C(=O)N[C@H](C)c1cccc2ccccc12 [Compound 131, (R)-2-(Azetidin-3-yl)-5-methyl-N-(1-(naphthalen-1-yl)ethyl)-1H-benzo[d]imidazole-6-carboxamide]	5.30 to 6.00
Cc1cc2nc[nH]c2cc1C(=O)N[C@H](C)c1cccc(-c2ccc(CN[C@H]3CC[C@@H](O)C3)s2)c1 [Compound 134, N-((R)-1-(3-(5-((((1S,3R)-3-hydroxycyclopentyl)amino)methyl)thiophen-2-yl)phenyl)ethyl)-5-methyl-1H-benzo[d]imidazole-6-carboxamide]	6.00 to 7.00
CC(c1cccc2ccccc12)N1CCc2ccc(N)cc2C1 (stereo not drawn) [Compound 135, 2-(1-(Naphthalen-1-yl)ethyl)-1,2,3,4-tetrahydroisoquinolin-7-amine]	5.30 to 6.00

SMILES	pIC50
Cc1ccc(Nc2cnn(C)c2)cc1C(=O)N[C@H](C)c1cccc(-c2ccc(CN[C@H]3CC[C@@H](O)C3)s2)c1 [Compound 137, N-((R)-1-(3-(5-((((1S,3R)-3-Hydroxycyclopentyl)amino)methyl)thiophen-2-yl)phenyl)ethyl)-2-methyl-5-((1-methyl-1H-pyrazol-4-yl)amino)benzamide]	5.30 to 6.00
Cc1ccc(N)cc1S(=O)(=O)N[C@H](C)c1cccc2ccccc12 [Compound 138, (R)-5-Amino-2-methyl-N-(1-(naphthalen-1-yl)ethyl)benzenesulfonamide]	< 5.30
CC(c1cccc2ccccc12)N1CCc2ccc(NC(=O)Cc3ccccc3)cc2C1 (stereo not drawn) [Compound 139, N-(2-(1-(Naphthalen-1-yl)ethyl)-1,2,3,4-tetrahydroisoquinolin-7-yl)-2-phenylacetamide]	< 5.30
Cc1ccc(Nc2cn[nH]c2)cc1C(=O)N[C@H](C)c1cccc(-c2ccc(CN[C@H]3CC[C@@H](O)C3)s2)c1 [Compound 140, 5-((1H-Pyrazol-4-yl)amino)-N-((R)-1-(3-(5-((((1S,3R)-3-hydroxycyclopentyl)amino)methyl)thiophen-2-yl)phenyl)ethyl)-2-methylbenzamide]	5.30 to 6.00
Cc1cc2cn[nH]c2cc1C(=O)N[C@H](C)c1cccc2ccccc12 [Compound 142, (R)-5-Methyl-N-(1-(naphthalen-1-yl)ethyl)-1H-indazole-6-carboxamide]	6.00 to 7.00
CC(c1cccc2ccccc12)N1CC(CC(=O)NCc2cccc(F)c2)C1 (stereo not drawn) [Compound 143, N-(3-Fluorobenzyl)-2-(1-(1-(naphthalen-1-yl)ethyl)azetidin-3-yl)acetamide]	< 5.30
CC(c1cccc2ccccc12)N1CCC(C(=O)NCc2cccc(F)c2)C1 (stereo not drawn) [Compound 144, N-(3-Fluorobenzyl)-1-(1-(naphthalen-1-yl)ethyl)pyrrolidine-3-carboxamide]	< 5.30
Cc1cc2c(cc1C(=O)N[C@H](C)c1cccc3ccccc13)OCO2 [Compound 145, (R)-6-Methyl-N-(1-(naphthalen-1-yl)ethyl)benzo[d][1,3]dioxole-5-carboxamide]	5.30 to 6.00
Cc1ccc(N)cc1C(=O)NC1(c2cccc3ccccc23)CC1 [Compound 147, 5-Amino-2-methyl-N-(1-(naphthalen-1-yl)cyclopropyl)benzamide]	6.00 to 7.00
Cc1cc2cc(CN)[nH]c2cc1C(=O)N[C@H](C)c1cccc2ccccc12 [Compound 148, (R)-2-(Aminomethyl)-5-methyl-N-(1-(naphthalen-1-yl)ethyl)-1H-indole-6-carboxamide]	6.00 to 7.00
C[C@H](c1cccc2ccccc12)N1C[C@@H]2[C@H](C1)[C@H]2C(=O)NCc1cccc(F)c1 [Compound 149]	< 5.30
Cc1cc2cccnc2cc1C(=O)N[C@H](C)c1cccc2ccccc12 [Compound 150, (R)-6-Methyl-N-(1-(naphthalen-1-yl)ethyl)quinoline-7-carboxamide]	5.30 to 6.00
Cc1cc2nc(CN)[nH]c2cc1C(=O)N[C@H](C)c1cccc(-c2ccc(CN[C@H]3CC[C@@H](O)C3)s2)c1 [Compound 151, 2-(Aminomethyl)-N-((R)-1-(3-(5-((((1S,3R)-3-hydroxycyclopentyl)amino)methyl)thiophen-2-yl)phenyl)ethyl)-5-methyl-1H-benzo[d]imidazole-6-carboxamide]	6.00 to 7.00
Cc1ccc(OC2COC2)cc1C(=O)N[C@H](C)c1cccc2ccccc12 [Compound 152, (R)-2-Methyl-N-(1-(naphthalen-1-yl)ethyl)-5-(oxetan-3-yloxy)benzamide]	5.30 to 6.00
Cc1cc2cc[nH]c2cc1C(=O)N[C@H](C)c1cccc2ccccc12 [Compound 153, (R)-5-Methyl-N-(1-(naphthalen-1-yl)ethyl)-1H-indole-6-carboxamide]	5.30 to 6.00
Cc1cc2cccnc2cc1C(=O)N[C@H](C)c1cccc(-c2ccc(CN[C@H]3CC[C@@H](O)C3)s2)c1 [Compound 154, N-((R)-1-(3-(5-((((1S,3R)-3-Hydroxycyclopentyl)amino)methyl)thiophen-2-yl)phenyl)ethyl)-6-methylquinoline-7-carboxamide]	5.30 to 6.00
Cc1cc2cc(C3CNC3)[nH]c2cc1C(=O)N[C@H](C)c1cccc2ccccc12 [Compound 156, (R)-2-(Azetidin-3-yl)-5-methyl-N-(1-(naphthalen-1-yl)ethyl)-1H-indole-6-carboxamide]	5.30 to 6.00
